A short description of the data set: Solubility of rofecoxib in solvent systems containing one solvent, UV spectrophotometry. The format is physicochemical. As for the experimental part: The solubility of rofecoxib was tested in a variety of solvent systems by UV spectrophotometry. A UV spectrophotometry method of evaluating the solubility of rofecoxib was used to determine the solubility of rofecoxib in various solvent systems. Erk et al. describes this method and is incorporated by reference herein in its entirety: Erk et al. Pharmazie. 2004 June; 59(6):453-6.
100 mg of rofecoxib was dissolved in 100 ml of methanol. Dilutions of the stock solution were made into methanol to give a final rofecoxib concentration of 5 μg/ml, 10 μg/ml, 20 μg/ml, 25 μg/ml, 30 μg/ml, 35 μg/ml, 40 μg/ml, 45 μg/ml, and 50 μg/ml. A UV spectrophotometer was utilized to read the absorbance of the samples 279.1 nm. Using Beer's law, a value for the extinction coefficient for rofecoxib was obtained. The value of the extinction coefficient of rofecoxib was determined to be 29.06 and was utilized in future experiments to determine the concentration of rofecoxib in various solvent systems.
100 mg of rofecoxib was added to 1 gram of each solvent. […] The mixtures of rofecoxib and solvents were vortexed for one minute and left at room temperature for one hour. The mixture was vortexed a second time and then left at room temperature overnight. The next morning the samples were vortexed a third time and then centrifuged at 12 k for 5 minutes. The excipient/rofecoxib mixture was transferred to a new tube being careful to not take any of the pellet. Serial dilutions of the rofecoxib solvent solutions were made (1:100 v:v), (1:1000 v/v), and (1:2000 v/v). Solvents without rofecoxib were diluted with methanol and used to blank a Beckman DU-7400 spectrophotometer. The absorbance of the samples was determined at a wavelength of 279.1 nm. The concentration of rofecoxib dissolved in the solvent was calculated using Beer's Law. Concentrations were converted from units of mg/mL to units of mg/g according to the following procedure:
(a) The volume of 1 g of solvent times the calculated mg/ml rofecoxib equals total mg of rofecoxib in 1 g of solvent. e.g. 1 g of a solvent that has a density of 1.05 g/mL is 952 μL. A rofecoxib solution with a concentration of rofecoxib of […] contains 28.17 mg of rofecoxib in 952 μL of solvent.
(b) To calculate the total volume, a mg of rofecoxib is assumed to equal to 1 μl of volume. Add volume of the solvent to the total weight of rofecoxib. 28.17 mg+1000 mg of solvent=1028.17 mg.
(c) To calculate the w/w divide the mg of rofecoxib 28.71 mg by the total weight of rofecoxib with solvent 1028.71 mg and multiply times 1000 mg to get the w/w […]/1028.71 mg*1000 mg=28.62 mg/g of solvent.

In the case of `CS(=O)(=O)c1ccc(C2=C(c3ccccc3)C(=O)OC2)cc1` [Rofecoxib], the Solubility of Rofecoxib runs as follows: (in 2-Methylpentane-2,4-diol) 0.59 mg/g; (in Acetone) 23.58 mg/g; (in Benzyl Alcohol) 19.54 mg/g; (in Diethyl sebacate) 1.3 mg/g; (in Diethylene glycol monoethyl ether) 9.07 mg/g; (in Diisopropyl adipate) 2.04 mg/g. Moreover, the Solubility of Rofecoxib (in Dimethyl Isosorbide) was 39.14 mg/g; the Solubility of Rofecoxib (in Dimethyl Sulfoxide) is on record as 143.6 mg/g; the Solubility of Rofecoxib (in Ethyl acetate) is reported as 5.5 mg/g; the Solubility of Rofecoxib (in Isopropyl tetradecanoate) is reported as 0.0017 mg/g; the Solubility of Rofecoxib (in N-methyl-2-pyrrolidone) is on record as 198 mg/g; the Solubility of Rofecoxib (in Oleic acid) is 0.402 mg/g. Besides, the Solubility of Rofecoxib was found to be 13.14 mg/g (in Polyethylene glycol-400 (PEG)); 9.18 mg/g (in Polysorbate 20 (PS20)); 9.71 mg/g (in Polysorbate 80 (PS80)); 49.43 mg/g (in Propylene Carbonate); 0.302 mg/g (in Propylene Glycol); 6.93 mg/g (in Propylene glycol diacetate). The same compound showed a Solubility of Rofecoxib (in alpha-Terpineol 95.0+ %) of 0.313 mg/g.

The record behind these values is patent publication US11260023B2, “Topical compositions containing rofecoxib and methods of making and using the same” (BRIORI BIOTECH, LLC, priority 2020, dated 2022).
